Assay results from US12383633B1, “Injectable formulations of PARP inhibitors and uses thereof” (ZYMERON CORPORATION, priority 2024, dated 2025).
Where two headings read alike, the source gives them in different places.

Key:
[1] = Method: (§1) 2.5 mL solutions of each excipient with each concentration were prepared by serial dilution of the saturated solution. One vial for each excipient experiment was prepared with 2.5 ml water. To each vial, 50 mg olaparib was added, sonicated, vortexed, and shaken at 40° C. for over 20 hr. After agitation at 25° C., the suspensions were filtered to obtain clear solutions. The clear solutions were analyzed using HPLC.
as §1, with “600 mg/mL” for “saturated”, “mL” for “ml”, “hours.” for “hr.”

[2] = cited from earlier work
[3] = type: physicochemical
Method: (§2) Sulfobutylether-β-cyclodextrin-enabled olaparib solubility enhancement experiments were conducted at various olaparib and sulfobutylether-β-cyclodextrin concentrations (FIG. 5). The dissolved quantity of olaparib increased when the concentration of sulfobutylether-β-cyclodextrin increased, indicating the formation of a 1:1 complex between the drug and solubilizer. The apparent complexation constant (K1:1) was calculated to be 432.4 M^−1 at 22° C.
This would be equivalent to >10 and >50 molar and weight ratios, respectively.
as §2, with “rucaparib” for “olaparib”, “6).” for “5).”, “596.7” for “432.4”

[4] = direct injection of 30-40% (w/v), preclinical studies; cited from earlier work

Molecule	Solubility Enhancement Factor [1]	olaparib water solubility improvement by excipient [1]	apparent complexation constant (K1:1) [3] [M⁻¹]	further results
CC(O)COC[C@H]1O[C@@H]2O[C@H]3[C@H](O)[C@@H](O)[C@@H](O[C@H]4[C@H](O)[C@@H](O)[C@@H](O[C@H]5[C@H](O)[C@@H](O)[C@@H](O[C@H]6[C@H](O)[C@@H](O)[C@@H](O[C@H]7[C@H](O)[C@@H](O)[C@@H](O[C@H]8[C@H](O)[C@@H](O)[C@@H](O[C@H]1[C@H](O)[C@H]2O)O[C@@H]8COCC(C)O)O[C@@H]7COCC(C)O)O[C@@H]6COCC(C)O)O[C@@H]5COCC(C)O)O[C@@H]4COCC(C)O)O[C@@H]3COCC(C)O (stereo partly drawn) [HP-β-cyclodextrin, 2-hydroxypropyl-β-cyclodextrin]	324	more than 100 fold	–	–
O=C(c1cc(Cc2n[nH]c(=O)c3ccccc23)ccc1F)N1CCN(C(=O)C2CC2)CC1 [olaparib]	–	–	432.4	equivalent weight ratio sulfobutylether-β-cyclodextrin to olaparib ([3]; to achieve 5 mg/ml olaparib): > 50; water solubility [2]: < 0.07 mg/mL
sulfobutylether-β-cyclodextrin [Sulfobutylether β-cyclodextrin]	–	–	–	hypertonicity-related adverse effects [4]: did not lead to any hypertonicity-related adverse effects

More lines, main results first:

Solubility Enhancement Factor [1]	olaparib water solubility improvement by excipient [1]	apparent complexation constant (K1:1) [3] [M⁻¹]	Molecule	further results
1	–	–	OC[C@@H](O)[C@@H](O)[C@H](O)[C@H](O)CO [D-mannitol]	saturated water solubility ([2]; 25° C.): 216 mg/mL
–	–	596.7	CNCc1ccc(-c2[nH]c3cc(F)cc4c3c2CCNC4=O)cc1 [rucaparib]	water solubility ([2]; across the physiological pH range): around 1 mg/mL
10	10 fold	–	OC[C@H]1O[C@@H]2O[C@H]3[C@H](O)[C@@H](O)[C@@H](O[C@H]4[C@H](O)[C@@H](O)[C@@H](O[C@H]5[C@H](O)[C@@H](O)[C@@H](O[C@H]6[C@H](O)[C@@H](O)[C@@H](O[C@H]7[C@H](O)[C@@H](O)[C@@H](O[C@H]8[C@H](O)[C@@H](O)[C@@H](O[C@H]1[C@H](O)[C@H]2O)O[C@@H]8CO)O[C@@H]7CO)O[C@@H]6CO)O[C@@H]5CO)O[C@@H]4CO)O[C@@H]3CO [β-cyclodextrin]	–
